Assays:
[1] = Rat subcutaneous PK, microparticle vs nanosuspension of TMB-607; format: in vivo; details: SC
[2] = Dog PK, intramuscular vs subcutaneous nanosuspension of TMB-607; format: in vivo, beagle dog; details: Fig. 3
[3] = Monkey PK, nanosuspensions of different particle size; format: in vivo
[4] = PK of injectable nanosized TMB-607 (summary statement); format: in vivo; details: injectable formulation of nanosized TMB-607; species not stated
[5] = target: HIV-1 protease (HIV-1蛋白酶) (Human immunodeficiency virus type 1 group M subtype B, UniProt P04585); details: cited from earlier work
[6] = test system: laboratory-adapted virus (实验室适应病毒); details: 48-week in vitro selection, increasing TMB-607 concentration; cited from earlier work
[7] = test system: single mutations in the protease open reading frame (蛋白酶开放读框); details: in vitro, site-directed mutagenesis; cited from earlier work
[8] = male beagle dog, 60 mg/kg, particle size about 150 nm, 6 weeks

COC(=O)N[C@H](C(=O)NCCCC[C@@H](CO)N(CC(C)C)S(=O)(=O)c1ccc(N)cc1)C(c1ccccc1)c1ccccc1 [TMB-607]
duration of plasma level above protein-binding-adjusted EC50 ([1]; nano-sized TMB-607, printed as 247 nm, Fig. 2): 14 days | duration for which TMB-607 plasma level is maintained ([1]; nanosuspension printed as 247 nm, compared with microparticle 2470 nm, Fig. 2): > 14 days | plasma level above protein-binding-adjusted EC50 for 14 days (in words) ([1]; microparticle 2470 nm, Fig. 2 (general description)): 不能 | Cmax in the initial period (in words) ([1]; rat, microparticle 2470 nm, 16.7 mg/kg): 引人注目的高Cmax | plasma level above protein-binding-adjusted EC50 for 14 days (in words) ([1]; rat, microparticle 2470 nm, 16.7 mg/kg, Fig. 2): 不能 | release profile (in words) ([1]; rat, nanosuspension 240 nm, 23.5 mg/kg): 持续的释放曲线 | duration of plasma level above protein-binding-adjusted EC50 ([1]; rat, nanosuspension 240 nm, doses printed for microparticle and nanosuspension 16.7 and 23.5 mg/kg respectively, Fig. 2): 14 days | AUC0-t, SC versus IM (in words) [2, 8]: 没有在AUC0-t值中观察到明显的差异 | Cmax, IM versus SC (in words) [2, 8]: 肌肉给药路径的Cmax值高于皮下给药路径的Cmax值 | plasma level after single IM or SC injection (in words) ([2]; single IM or SC injection of nanosuspension): 延长了TMB-607的血浆水平 | plasma level and duration of action, smaller particle size (in words) ([3]; 113 nm compared with 214 nm): 较高的血浆水平和较长的作用时间 | plasma level and duration of action, smaller particles (in words) ([3]; monkey, 60 mg/kg, 113 nm versus 214 nm, Fig. 4): 较高的血浆水平和较长的作用时间 | AUC0-t on reducing particle size (in words) ([3]; monkey, injected nanosuspension, 60 mg/kg, 214 nm versus 113 nm, 4 weeks): AUC0-t和t1/2均大致增加 | plasma level (in words) ([3]; particle sizes 214 nm and 113 nm): 都可以延长血浆水平 | duration of stable plasma levels [4]: > 1 month | inhibition of HIV-1 protease (potency, in words) [5]: 效用 and 有效 | selectivity in inhibiting HIV-1 protease (in words) [5]: 选择性 and 有选择性 | mutations selected in protease open reading frame [6]: 四个突变 | resistance caused by single mutation (in words) [7]: 单一突变不会导致对TMB-607的明显抗药性

From patent publication CN109475563A, “蛋白酶抑制剂的长效医药组合物” (Taimed Biologics Inc, priority 2016, dated 2017)
